Laboratory results reported in patent publication US20220267356A1, “ARGINASE INHIBITORS AND METHODS OF USE THEREOF” (AstraZeneca AB, priority 2019, published 2022).
pIC50: −log10 of the molar value.

Assays:
Human Arginase 1 = biological target: T1, Human Arginase 1 (Homo sapiens, UniProt P05089); experiment: Human Arginase 1 enzyme inhibition (thioarginine/DTNB absorbance at 412 nm); format: biochemical; conditions: recombinant enzyme 5 nM, 60 min, room temperature
T1 construct: made in house; host or cells: E. coli
T1 sequence (P05089 1-322): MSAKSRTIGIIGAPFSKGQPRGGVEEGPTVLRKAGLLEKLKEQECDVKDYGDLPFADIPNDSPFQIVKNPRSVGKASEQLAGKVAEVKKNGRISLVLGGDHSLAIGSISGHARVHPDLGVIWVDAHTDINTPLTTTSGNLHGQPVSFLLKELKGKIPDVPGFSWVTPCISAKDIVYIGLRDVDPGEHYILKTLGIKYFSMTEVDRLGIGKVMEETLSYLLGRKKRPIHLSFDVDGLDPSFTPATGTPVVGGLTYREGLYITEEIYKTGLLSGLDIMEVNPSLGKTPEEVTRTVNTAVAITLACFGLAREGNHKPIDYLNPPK
Description: (§1) The inhibitory effects of Examples 1-26 on the activity of Human Arginase 1 and Arginase 2 activity were quantified by measuring the formation of the thiol group from thioarginine using recombinant Arginase 1 or Arginase 2 produced from E. coli. The thiol group was detected with Ellman's reagent, 5,5′-dithiobis(2-nitrobenzoic acid) (DTNB). DTNB reacts with the thiol to give the mixed disulfide and 2-nitro-5-thiobenzoic acid (TNB) which is quantified by the absorbance of the anion (TNB^2−) at 412 nm.
(§2) The assays were run in clear 384 well plates (Greiner cat no: 781101). Various concentrations of Examples 1-26 in 300 nL DMSO were dispensed to assay plates using an Echo acoustic dispenser immediately followed by plate sealing and centrifugation. Two pre-mixes were prepared from reagents thawed immediately before addition to assay plates. Pre-mix one comprised human Arginase 1 or human Arginase 2, at a final concentration of 5 nM and 0.5 mM DTNB in assay buffer, 45 mM HEPES pH7.5, brij 35, 0.045% (w/v) and 100 μM MnCl2. Pre-mix two comprised freshly thawed 0.5 mM thioarginine in assay buffer. Fifteen microlitres of pre-mix one was dispensed to assay plates containing Examples 1-9, centrifuged and incubated for 30 minutes at room temperature prior to adding fifteen microlitres of pre-mix two.
(§3) Assay plates were centrifuged prior to reading absorbance at 412 nm in a Pherastar multi-mode plate reader to collect data at time point 0 (T0). The plates were incubated at room temperature for 60 min prior to reading again to collect data at time point 1 (T1). Data is derived by subtracting the A412 signal measured at T0 (time point 0) from that measured at T1 (time point 1). The data was transformed to % effect using the equation:
(§4) Compound % effect=100*[(X−min)/(max−min)],
(§5) where X represents the normalized value for the compound based on the Min (vehicle) and Max (reference compound) inhibition control.
(§6) The concentration of Examples 1-26 that inhibited the activity by 50% (i.e.the IC50) was calculated by plotting the % effect versus test compound concentration and fitting the data using the Genedata Screener Smart fit algorithm.

Human Arginase 2 = biological target: T2, Human Arginase 2 (Homo sapiens, UniProt P78540); experiment: Human Arginase 2 enzyme inhibition (thioarginine/DTNB absorbance at 412 nm); format: biochemical; conditions: recombinant enzyme 5 nM, 60 min, room temperature
T2 construct: made in house; host or cells: E. coli
T2 sequence (P78540 23-354): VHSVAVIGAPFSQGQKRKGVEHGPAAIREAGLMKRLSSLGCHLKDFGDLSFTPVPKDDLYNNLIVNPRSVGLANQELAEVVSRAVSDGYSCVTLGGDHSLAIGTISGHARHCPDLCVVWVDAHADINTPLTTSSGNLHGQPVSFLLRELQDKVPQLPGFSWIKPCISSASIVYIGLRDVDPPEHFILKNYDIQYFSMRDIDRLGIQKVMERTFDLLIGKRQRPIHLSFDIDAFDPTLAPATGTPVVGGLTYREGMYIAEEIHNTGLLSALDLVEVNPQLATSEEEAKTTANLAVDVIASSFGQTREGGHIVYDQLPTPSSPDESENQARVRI
Description: as §1, §2, §3, §4, §5, §6

[1] = Bioavailability / pharmacokinetic study in male rats (IV and PO); format: in vivo; conditions: rat, pro-drug in plasma when dosed as pro-drug; for clearance / Vd: IV 2 mg/kg; for Vd: read-out: Vdss
Description: Example 14 is a prodrug form of Example 1. Examples 19 to 22 and 24 to 26 are prodrugs of example 18. […] Example 19 was formulated in 0.9% w/v saline pH 4 (adjusted with 1 M HCl) for IV dosing. The formulation was dosed at 2 mg/kg by femoral catheter to two male rats each (170-250 g). Jugular vein catheter serial blood samples were taken at 0.033, 0.083, 0.167, 0.5, 1, 2, 4, 8, and 24 hrs post-dose. For PO dosing, Example 19 was formulated in deionized water pH 4 (adjusted with 1 M HCl) and dosed at 5 mg/kg by oral gavage to two male rats each (170-250 g). Serial blood samples were taken by jugular vein catheter at 0.25, 0.5, 1, 1.5, 2, 3, 4, 8, and 24 hrs post dose. Plasma samples were generated from blood using low speed centrifugation. A single set of calibration standards containing Example 18 and Example 19 were prepared by spiking blank plasma. The samples and standards were extracted by precipitation with two volumes of acetonitrile followed by centrifugation. The results obtained were used to determine the Cl (mL/min/kg), Vdss (L/kg), Cmax (μM), AUC (μM h), tmax (h), and % F for both Example 18 and Example 19. Absolute bioavailability was determined by comparing the PO dose normalized AUC of Example 18 when dosed as Example 19, versus the dose normalized IV AUC of Example 18 when dosed as Example 18. Where appropriate, measured, not nominal, doses were used in the calculation. In an analogous fashion, the same procedure was repeated for Examples 14, 20 to 22, and 24 to 26.

pIC50 (Human Arginase 1) | pIC50 (Human Arginase 2) | clearance [1] [mL/min/kg] | Vd [1] [L/kg] | Cmax ([1]; PO 5 mg/kg) [nM] | Tmax ([1]; PO 5 mg/kg) [min] | SMILES
7.17 | 6.82 | 28.3 | 0.18 | 40 | 15 | C[C@H](N)C(=O)N[C@H](C(=O)O)[C@H](CN)CCCB(O)O [Example 25, (2S,3S)-3-(aminomethyl)-2-[[(2S)-2-aminopropanoyl]amino]-6-borono-hexanoic acid]
5.59 | 5.69 | 26.6 | 0.15 | – | – | CC(C)[C@H](N)C(=O)N[C@H](C(=O)O)[C@H](CN)CCCB(O)O [Example 26, (2S,3S)-3-(aminomethyl)-2-[[(2S)-2-amino-3-methyl-butanoyl]amino]-6-borono-hexanoic acid]
